Test results published in patent US20130136809A1, “7-HYRDROXYFRULLANOLIDE ITS ANALOGS FOR PREVENTION CONTROL AND TREATMENT OF METABOLIC DISORDERS” (LAILA NUTRACEUTICALS, priority 2009, published 2013).

Experiments:
Format in all cases: cell-based, mouse
[1] = test system: CD36; assay: Immunoblot of CD36 expression in high glucose induced J774 macrophage cells; conditions: 1 μg/ml; 600 mg/dL glucose, 5 days
Procedure: Experimental protocol: This was evaluated in glucose induced J774, mouse macrophage cells. Briefly, the cells were cultured in DMEM with 2 mM Glutamine, 100 U/mL penicillin, […] streptomycin and 10% fetal bovine serum (Hyclone, Logan, Utah). Equal number of cells was seeded into 35 mm petri dishes (Corning, USA) one day before the experiment. The culture media was replaced with fresh, glucose free DMEM supplemented with 10% fetal bovine serum. 7-HF was diluted at […] and all cultures were pre-incubated for 2 hours at 5% CO2 at 37° C., and then incubated with 600 mg/dL of glucose for 5 days. Representative photomicrographs showing inhibition of lipid accumulation by 7-HF in high glucose induced macrophage cells of an in vitro model of atherosclerosis are shown in Figure IV. The control culture was supplemented with 100 mg/dL glucose. […] Protein concentration was measured by Bradford method.
Inhibition of CD36 protein expression in high glucose induced J774 macrophage cells in presence or absence of 7-HF was evaluated in immunoblot assay. […] Finally, the specific immuno-reactive bands were developed with West-pico chemiluminescent substrate (Pierce Biotechnology, IL, USA), and the immunoblot images were recorded in a Kodak Image Station (Kodak, USA). Band intensities were calculated densitometrically and normalized with expression of actin in respective samples.

[2] = test system: 3T3-L1 pre-adipocyte cells; assay: Pro-lipolytic activity in differentiated adipocytes (free glycerol release); conditions: 5 μg/mL; increase in glycerol release
Procedure: The lipolytic activity was assessed in mature adipocytes as per the procedure of Chemicon International, USA, by measuring free glycerol secreted into the culture medium. One hundred thousand 3T3-L1 […] pre-adipocyte cells in Dulbecco's Modified Eagles Medium (DMEM) containing 10% Fetal Bovine Serum (FBS) were taken into each well of a 24-well plate and incubated for 48 h at 37° C. and 5% CO2. The differentiation of pre-adipocyte cells was initiated in a differentiation medium containing 10 µg/ml insulin, 1.0 µM dexamethasone, and 0.5 mM isobutylmethylxanthine (IBMX). The cells were differentiated for 5 days and then the culture medium was removed. The monolayer was washed twice with wash solution (Hank's balanced salt solution), and then 250 µL of incubation solution (Hank's balanced salt solution plus 2% bovine serum albumin) was added to the wells in triplicate in presence or absence of 7-hydroxyfrullanolide or its analogs or the extracts containing 7-HF, and the cells were further incubated for 16 h. To measure lipolysis, 200 μL of free glycerol assay reagent was added to 25 µL of culture supernatants and controls containing glycerol standard. The samples and the controls were incubated for 15 min, and the absorbance was read at 540 nm. A standard curve constructed from the glycerol was used to calculate the concentration of free glycerol in the culture supernatants. The percentage increase in glycerol concentration in the sample solutions compared to the control containing the known concentrations of glycerol corresponds to the percentage acceleration of lipolysis by test compound.

[3] = test system: CD36; assay: Immunoblot of CD36 expression in 3T3-L1 adipocytes; conditions: 1 ug/ml; normalized with actin
Procedure: (§1) Experimental protocol: Mouse pre-adipocyte 3T3-L1 cells are maintained in Dulbecco's Modified Eagles Medium (DMEM) supplemented with 2 mM glutamine, 4.5 g/L glucose and 10% fetal bovine serum. Equal number of cells was plated in each well of 24-well culture plates. Cells were pre-treated separately with 1 μg/mL 7-hydroxyfrullanolide for 2 h and followed by addition of differentiation medium containing 500 nM insulin, 1.0 μM dexamethasone, and 0.5 mM isobutylmethylxanthine (IBMX) for 48 h. Thereafter, cells were further incubated with post differentiation medium (DMEM containing 100 nM insulin) in presence or absence of 7-HF. […] Protein content was measured in Bradford method by using Coomassie blue dye and cell lysates were stored in aliquots at −80° C. until further use. The modulation of adipocyte differentiation markers such as Peroxisome proliferator-activated receptor gamma (PPARγ), CD36, adipocyte fatty acid binding protein (aP2); and intracellular lipid droplet surface associated protein, perilipin expression were evaluated by immunoblot assay.
(§2) Inhibition of protein expression of biomarker molecules adipocytes in presence or absence of 7-hydroxyfrullanolide (7-HF) was evaluated in immunoblot assay. […] Band intensities were calculated densitometrically and normalized with expression of actin in respective samples.

[4] = test system: aP2; assay: Immunoblot of aP2 expression in 3T3-L1 adipocytes; conditions: 1 ug/ml; normalized with actin
Procedure: as §1, §2

[5] = test system: perilipin; assay: Immunoblot of perilipin expression in 3T3-L1 adipocytes; conditions: 1 ug/ml; normalized with actin
Procedure: as §1, §2

[6] = test system: ADRP; assay: Immunoblot of ADRP expression in 3T3-L1 adipocytes; conditions: 1 ug/ml; normalized with actin
Procedure: as §1, §2

[7] = test system: PPARγ; assay: Immunoblot of PPARγ expression in 3T3-L1 adipocytes; conditions: 1 ug/ml; normalized with actin
Procedure: as §1, §2

## C=C1C(=O)O[C@H]2C3=C(C)CCC[C@]3(C)CC[C@@]12O [7-HF (1), 7-hydroxyfrullanolide]
[1]
  CD36 levels in high glucose induced macrophage cells: reduced back towards their base values
[2]
  % acceleration of lipolysis: 47.8%
[3]
  CD36 protein expression: down-regulation
[4]
  aP2 protein expression: down-regulation
[5]
  perilipin protein expression: down-regulation
[6]
  ADRP protein expression: down-regulation
[7]
  PPARγ protein expression: down-regulation
